Results on two substances are retold here after US20250121099A1, “CLOSO-DODECAIODODECABORATE COMPLEXES AND METHODS OF USE FOR SAME” (The Regents of the University of California, priority 2022, published 2025).

Entries after “also recorded” stand apart in the source; their conditions may differ. Where two headings read alike, the source gives them in different places.

The conditions of series [1]: cited from earlier work.
Series [2] concerns mice. The note with it: cited from earlier work.
The nature of series [3]: Stability of Na2B12I12: refluxing PBS (11B NMR). The series is classed as physicochemical. Conditions: refluxing in PBS pH 7.4 (100° C.) for 1 hour. An excerpt: (§1) General methods. Na2B12I12 was obtained from Katchem, γ-cyclodextrin (γ-CD) was obtained from Combi-Blocks, 2-hydroxypropyl-γ-cyclodextrin (HP-γ-CD; 0.6 functionalized, average Mw=1580 Da) was obtained from Sigma-Aldrich, phosphate-buffered saline (PBS) was obtained from Fisher Scientific. The reagents were used as received. D2O was obtained from Cambridge Isotopes. Washed single-donor human red blood cells (RBCs) were obtained from Innovative Research. These are RBCs that have been separated from type 0 positive whole blood and resuspended in Alsever's Solution. Defibrinated bovine blood was obtained from HemoStat Laboratories. All experiments were performed under ambient conditions. NMR spectra were collected using a Bruker Avance III HD 500 spectrometer equipped with a multinuclear Smart Probe. The frequencies of the ^1H and ^11B NMR signals are reported in ppm as chemical shifts from TMS and BF3·Et2O, respectively. Electronic absorption spectra were recorded on VWR UV-6300PC double beam spectrophotometer. […] Each sample was spiked with D2O and analyzed by ^11B NMR spectroscopy. […] The absorbance of this solution was measured from 700 to 350 nm. The subsequent samples were then measured in turn. […] The absorbance corresponding to 100% lysis was confirmed by adding a 10 μL aliquot of freshly resuspended RBCs to 250 μL of hemolysis buffer (0.15 M NH4Cl and 10 mM KHCO3). […]

The nature of series [4]: Stability of Na2B12I12: bovine blood (11B NMR). The series is classed as in vitro ADME. The note with it: 24-hour incubation at room temperature with defibrinated bovine blood.
Source text: as §1

Series [5] deals with cats. Conditions: cited from earlier work.
A short description of series [6]: Stability of Na2B12I12: bovine serum (11B NMR). The series is classed as in vitro ADME. Conditions: 24-hour incubation at room temperature with bovine serum.
Source text: as §1

Series [7] deals with human red blood cells (RBCs). Description: Hemolytic activity of Na2B12I12 (Hb release from RBCs). The series is classed as cell-based.
Source text: as §1, with “spectrophotometer. Stability of Na2B12I12: refluxing PBS. A 500 μL aliquot of a 10 mM solution of Na2B12I12 in PBS (pH 7.4) was placed in an oil bath pre-heated to 100° C. After incubating in this bath for 1 h, the sample was removed, cooled to room temperature, and spiked with 50 μL D2O prior to acquiring a ^11B NMR spectrum. Stability of Na2B12I12: human RBCs. A 275 μL aliquot of a 20 mM solution of Na2B12I12 in PBS (pH 7.4) was added to a 225 μL suspension of human RBCs. The mixture was allowed to stand at room temperature for 24 h. It was then spiked with 50 μL D2O prior to acquiring a ^11B NMR spectrum. […] Stability of Na2B12I12: bovine serum. A 1 mL aliquot of defibrinated bovine blood was centrifuged for 15 s at 15,850×g. A 225 μL aliquot of the serum supernatant was combined with a 275 μL aliquot of a 20 mM solution of Na2B12I12 in PBS (pH 7.4). The mixture was allowed to stand at room temperature for 24 h. It was then spiked with 50 μL D2O prior to acquiring a ^11B NMR spectrum. Stability of Na2B12I12: bovine blood. A 225 μL aliquot of defibrinated bovine blood was combined with a 275 μL aliquot of a 20 mM solution of Na2B12I12 in PBS (pH 7.4). The mixture was allowed to stand at room temperature for 24 h. It was then spiked with 50 μL D2O prior to acquiring a ^11B NMR spectrum. Job plot of HP-γ-CD and Na2B12I12. Solutions of Na2B12I12 (20 mM) and […] (20 mM) were prepared in PBS (pH 7.4).” for “spectrophotometer.”

A short description of series [8]: Stability of Na2B12I12: human RBCs (11B NMR). The series is classed as in vitro ADME. Conditions: 24-hour incubation at room temperature with suspension of human RBCs.
Source text: as §1

Take “closo-dodecaiodododecaborate [B12I12^2−]”: the chemical stability result in series [1] (heating to 85° C. in 5M NaOH), in series [1] (heating to 150° C. in H2SO4) and in series [1] (treatment with Cl2 gas) was “unchanged” each time.
What is called IC50 is the concentration that gives 50% inhibition. On to “closo-dodecaiodododecaborate sodium [Na2B12I12]”, for which the toxicity entry in series [2] and in series [5] was “toxic” each time. The “stability (new 11B NMR signals)” value in series [3] was “lack of new ^11B NMR signals”; in series [4], “no additional signals appear; also recorded: absence of new signals”; in series [6], “no additional signals appear; also recorded: absence of new signals”; in series [8], “no additional signals appear; also recorded: absence of new signals”. For the same substance, the hemolysis entry in series [7] (100 mM Na2B12I12, no cyclodextrin, human RBCs) is reported as “rapid hemolysis; also recorded: complete hemolysis”. Further, the “concentrations at which hemolysis is not induced” value in series [7] (Na2B12I12 alone) is “below 6 mM”. Further, in series [7] (PBS), the “concentration of PBS solutions that induce hemolysis” value was “greater than 50 mM”. The IC50 in series [7] (human RBCs in PBS pH 7.4, 10 s exposure, three replicates, read-out: IC50 (proportion of RBCs lysed, absorption of supernatant at 413 nm, logistic regression) (converted)) was 66.3 mM.
